Assay [1] deals with human Werner helicase (WRN, amino acids 517-1235 with L1074F point mutation) (Homo sapiens (Human), UniProt Q14191, L1074F). The experiment in a line: WRN (BV08) ADP-Glo assay. The format is biochemical. The note with it: human WRN (aa 517-1235, L1074F), read-out: ADP-Glo_hWRN_IC50. The gist of the method: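 Untagged WRN 517-1235 (L1074F), Sf9/baculovirus-expressed, 0.15 nM, preincubated 15 min with compound, then 5 μM ATP and 0.1 nM annealed DNA duplex added; 60 min at 25 °C in Bicine pH 7.5, 1 mM MgCl2, 1% DMSO. ADP-Glo luminescence; % inhibition vs DMSO and 20 μM NSC-617145 controls, four-parameter IC50 fit.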
In general terms: In ADP-Glo the light output rises with the ADP produced.

Assay [2] has as its system p21 induction in HCT 116 cells. The experiment in a line: p21 induction in cells (In-Cell Western, p21/GAPDH ratio). The class given is cell-based. The settings on record: 24 h compound incubation, read-out: p21_EC50. In outline:
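HCT 116 cells treated 24 h at 37° C with 11-point, 2-fold dilutions typically from 10 μM, in duplicate. Fixed cells co-stained for p21 (800 nm) and GAPDH (700 nm) by In-Cell Western. p21/GAPDH ratio normalised between DMSO and reference WRN inhibitor controls, and EC50 obtained by nonlinear regression.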

The structures appear in SMILES notation. Like-named read-outs stand apart in the source and are kept apart here. Some results are limits rather than exact numbers.

human Werner helicase (WRN, amino acids 517-1235 with L1074F point mutation), sequence (Q14191 other isoform, or with tags, fused parts or gaps L1074F (already in the parent)): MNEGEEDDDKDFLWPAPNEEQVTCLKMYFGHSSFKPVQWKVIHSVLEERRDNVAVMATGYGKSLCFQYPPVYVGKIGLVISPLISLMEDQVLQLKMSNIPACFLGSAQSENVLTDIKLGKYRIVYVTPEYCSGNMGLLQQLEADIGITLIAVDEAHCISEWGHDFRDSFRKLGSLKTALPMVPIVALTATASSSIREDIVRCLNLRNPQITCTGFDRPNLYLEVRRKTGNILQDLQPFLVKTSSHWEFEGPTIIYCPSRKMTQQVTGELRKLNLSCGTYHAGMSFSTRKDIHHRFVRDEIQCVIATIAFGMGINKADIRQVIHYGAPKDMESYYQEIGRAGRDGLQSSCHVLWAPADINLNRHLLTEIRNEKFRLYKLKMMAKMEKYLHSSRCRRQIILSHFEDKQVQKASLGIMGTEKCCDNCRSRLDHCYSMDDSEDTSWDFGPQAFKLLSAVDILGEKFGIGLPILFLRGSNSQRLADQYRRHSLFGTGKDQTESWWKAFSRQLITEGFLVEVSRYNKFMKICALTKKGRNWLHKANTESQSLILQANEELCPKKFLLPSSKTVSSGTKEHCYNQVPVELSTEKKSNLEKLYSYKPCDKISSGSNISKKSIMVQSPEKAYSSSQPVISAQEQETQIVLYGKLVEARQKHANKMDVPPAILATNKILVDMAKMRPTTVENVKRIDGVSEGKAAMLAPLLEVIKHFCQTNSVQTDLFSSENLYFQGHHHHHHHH

As for `CCc1c(N2CCN(C(=O)c3ncnc(C)c3O)[C@H]3CC[C@@H]32)c(=O)c2nn(C3=CCOCC3)nc2n1CC(=O)NC12CC(C(C)C)(C1)C2` [Compound I-49, 2-[2-(3,6-dihydro-2H-pyran-4-yl)-5-ethyl-6-[(1S,6S)-5-(5-hydroxy-6-methylpyrimidine-4-carbonyl)-2,5-diazabicyclo[4.2.0]octan-2-yl]-7-oxo-2H,4H,7H-[1,2,3]triazolo[4,5-b]pyridin-4-yl]-N-[3-(propan-2-yl)bicyclo[1.1.1]pentan-1-yl]acetamide], the IC50 in assay [1] was in the range of 5 to 50 nM. In addition, the EC50 in assay [2] was not above 500 nM.

Consider `CCc1c(N2CCN(C(=O)c3ncnc(C)c3O)[C@H]3CC[C@@H]32)c(=O)c2nn(-c3ccnc(C)c3)nc2n1CC(=O)Nc1ccc(C(F)(F)F)cc1Cl` [Compound I-96, N-[2-chloro-4-(trifluoromethyl)phenyl]-2-{5-ethyl-6-[(1S,6S)-5-(5-hydroxy-6-methylpyrimidine-4-carbonyl)-2,5-diazabicyclo[4.2.0]octan-2-yl]-2-(2-methylpyridin-4-yl)-7-oxo-2H,4H,7H-[1,2,3]triazolo[4,5-b]pyridin-4-yl}acetamide], for which the IC50 in assay [1] is not above 5 nM. Moreover, the EC50 in assay [2] is not above 500 nM.

`CCc1c(N2CCN(C(=O)c3c(OC)ncc(C)c3O)CC2)c(=O)c2nn(C3=CCOCC3)nc2n1CC(=O)NC12CC(C(C)C)(C1)C2` [Compound I-111, 2-[2-(3,6-dihydro-2H-pyran-4-yl)-5-ethyl-6-[4-(4-hydroxy-2-methoxy-5-methylpyridine-3-carbonyl)piperazin-1-yl]-7-oxo-2H,4H,7H-[1,2,3]triazolo[4,5-b]pyridin-4-yl]-N-[3-(propan-2-yl)bicyclo[1.1.1]pentan-1-yl]acetamide]: the IC50 in assay [1] lay within 5 to 50 nM. The EC50 in assay [2] (Homo sapiens) was not above 500 nM.

On to `CCc1c(N2CCN(C(=O)c3ncnc(C)c3O)[C@H]3CC[C@@H]32)c(=O)c2nn(-c3ccnc(OC)c3)nc2n1CC(=O)NC12CC(C(C)(F)F)(C1)C2` [Compound I-27, N-(3-(1,1-difluoroethyl)bicyclo[1.1.1]pentan-1-yl)-2-(5-ethyl-6-((1S,6S)-5-(5-hydroxy-6-methylpyrimidine-4-carbonyl)-2,5-diazabicyclo[4.2.0]octan-2-yl)-2-(2-methoxypyridin-4-yl)-7-oxo-2,7-dihydro-4H-[1,2,3]triazolo[4,5-b]pyridin-4-yl)acetamide], for which, in assay [1], the IC50 lay in the range of 5 to 50 nM. For the same compound, in assay [2] (Homo sapiens), the EC50 is not above 500 nM.

With `CCc1c(N2CCN(C(=O)c3c(OC)nc(C(F)F)c(C)c3O)[C@H]3CC[C@@H]32)c(=O)c2nn(C3=CCOCC3)nc2n1CC(=O)NC12CC(C3CC3)(C1)C2` [Compound I-190, N-{3-cyclopropylbicyclo[1.1.1]pentan-1-yl}-2-{6-[(1S,6S)-5-[6-(difluoromethyl)-4-hydroxy-2-methoxy-5-methylpyridine-3-carbonyl]-2,5-diazabicyclo[4.2.0]octan-2-yl]-2-(3,6-dihydro-2H-pyran-4-yl)-5-ethyl-7-oxo-2H,4H,7H-[1,2,3]triazolo[4,5-b]pyridin-4-yl}acetamide], in assay [1], the IC50 was in the range of 5 to 50 nM. Also, the EC50 in assay [2] (Homo sapiens) was not above 500 nM.

On to `CCc1c([C@]23CCN(C(=O)c4ncnc(C)c4O)C[C@H]2C3)c(=O)c2nn(-c3ccnc(OC)c3)nc2n1CC(=O)NC12CC(C(C)C)(C1)C2` (relative stereo) [Compound I-41, rel-2-{5-ethyl-6-[(1R,6S)-3-(5-hydroxy-6-methylpyrimidine-4-carbonyl)-3-azabicyclo[4.1.0]heptan-6-yl]-2-(2-methoxypyridin-4-yl)-7-oxo-2H,4H,7H-[1,2,3]triazolo[4,5-b]pyridin-4-yl}-N-[3-(propan-2-yl)bicyclo[1.1.1]pentan-1-yl]acetamide], for which the IC50 in assay [1] was 5 to 50 nM. For the same compound, the EC50 in assay [2] (Homo sapiens) was in the range of 2000 to 5000 nM.

(Values after US20250129069A1, “TRIAZOLO WRN INHIBITORS” (Nimbus Wadjet, Inc., priority 2023, published 2025).)
